In ChEMBL document CHEMBL5500414 (J Med Chem, 2024):

Columns and labels:
[1] = biological target: T1, BCL2A1/BID (Homo sapiens, UniProt Q16548)
T1 sequence (Q16548 whole entry): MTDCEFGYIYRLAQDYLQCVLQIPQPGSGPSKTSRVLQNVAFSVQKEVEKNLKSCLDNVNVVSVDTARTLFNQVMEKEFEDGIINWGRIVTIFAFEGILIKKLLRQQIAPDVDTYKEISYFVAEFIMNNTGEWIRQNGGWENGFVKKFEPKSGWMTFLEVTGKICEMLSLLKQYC
T1 sequence (P55957 whole entry): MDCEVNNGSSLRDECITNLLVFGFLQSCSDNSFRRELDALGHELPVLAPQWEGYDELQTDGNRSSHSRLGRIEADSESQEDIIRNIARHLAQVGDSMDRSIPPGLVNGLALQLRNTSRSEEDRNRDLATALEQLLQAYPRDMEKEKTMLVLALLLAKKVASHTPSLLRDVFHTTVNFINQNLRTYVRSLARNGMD
Description: Inhibition of BFL-1 (unknown origin)/FITC-conjugated Bid BH3 peptide (unknown origin) interaction by fluorescence polarization assay

[2] = test system: MV4-11; assay: Antiproliferative activity against human MV4-11 cells expressing high BCL-2 assessed as cell viability measured after 72 hrs by Cell Counting Kit-8 assay; details: MV4-11, 72 h
[3] = test system: Pfeiffer; assay: Antiproliferative activity against human Pfeiffer cells expressing high BCL-2/BFL-1 assessed as cell viability measured after 72 hrs by Cell Counting Kit-8 assay
[4] = biological target: T1, BCL2A1/BID; remark: listed apart in the source
[5] = biological target: Induced myeloid leukemia cell differentiation protein Mcl-1/BH3-interacting domain death agonist (Homo sapiens, UniProt Q07820)
Description: Inhibition of MCL-1 (unknown origin)/FAM-BID (unknown origin) interaction measured by fluorescence polarization assay

[6] = Glutathione reactivity assessed as half life
[7] = biological target: T2, Bcl-2-related protein A1 (Homo sapiens, UniProt Q16548); assay: Binding affinity to wild type human BFL-1 assessed as inhibition constant by SPR assay
T2 sequence (Q16548 whole entry): T1 sequence (Q16548 whole entry)

[8] = biological target: Bcl-2-related protein A1 (Homo sapiens, UniProt Q16548, C55A); assay: Binding affinity to BFL-1 C55A mutant (unknown origin) assessed as inhibition constant by fluorescence polarization assay
[9] = biological target: Induced myeloid leukemia cell differentiation protein Mcl-1 (Homo sapiens, UniProt Q07820); assay: Binding affinity to MCL-1 (unknown origin) assessed as inhibition constant by time-resolved fluorescence resonance energy transfer binding affinity assays
Chain of Induced myeloid leukemia cell differentiation protein Mcl-1 (Q07820 whole entry): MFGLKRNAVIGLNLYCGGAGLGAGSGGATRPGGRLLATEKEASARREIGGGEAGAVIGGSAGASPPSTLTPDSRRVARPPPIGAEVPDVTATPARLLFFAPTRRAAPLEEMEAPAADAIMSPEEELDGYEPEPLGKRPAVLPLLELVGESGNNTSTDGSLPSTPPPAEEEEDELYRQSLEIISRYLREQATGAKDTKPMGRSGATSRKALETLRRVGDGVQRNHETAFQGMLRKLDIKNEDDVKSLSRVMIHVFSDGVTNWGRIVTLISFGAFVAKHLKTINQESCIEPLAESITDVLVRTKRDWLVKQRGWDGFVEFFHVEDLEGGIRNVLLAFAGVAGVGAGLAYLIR

Chain of Induced myeloid leukemia cell differentiation protein Mcl-1/BH3-interacting domain death agonist (Q07820 whole entry, one chain of several, the tested form may be a part): as the sequence (Q07820 whole entry) above
Chain of Bcl-2-related protein A1 (Homo sapiens, UniProt Q16548, C55A) (Q16548 whole entry C55A): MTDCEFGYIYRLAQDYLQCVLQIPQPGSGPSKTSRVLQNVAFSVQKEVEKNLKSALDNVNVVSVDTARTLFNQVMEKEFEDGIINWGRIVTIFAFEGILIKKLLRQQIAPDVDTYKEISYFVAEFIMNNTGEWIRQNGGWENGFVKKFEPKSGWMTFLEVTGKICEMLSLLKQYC

| SMILES | Ki [4] | other results |
| --- | --- | --- |
| CN1CCN(C2=C(Cl)C(=O)N(c3ccc(Cl)c(Cl)c3)C2=O)CC1 |  | IC50 [1]: 400 nM |
| CCOC(=O)CS(=O)(=O)c1nc(-c2ccc(F)cc2)cc(C(F)(F)F)n1 |  | IC50 [1]: 2600 nM |
| CC(C)(C)c1ccc(CN2CCN(S(=O)(=O)Nc3ccc(SCCc4ccccc4)cc3C(=O)O)CC2)cc1 | 645 nM | IC50 [2]: 46200 nM; IC50 [3]: 21300 nM |
| C=CC(=O)N1CCN(c2c3ccc(-c4cccc(F)c4)cc3nn2Cc2ccccc2)CC1 | 465 nM |  |
| CC(=O)N[C@@H](Cc1c[nH]c2ccccc12)C(=O)NCCSSCCN(C)C |  | EC50 [1]: 1300 nM |
| C=CC(=O)Nc1ccc2c(c1)CCC(CN1CCN(Cc3cccc(C(=O)O)c3)CC1)=C2c1ccc(Cl)cc1 | > 20000 nM |  |
| C=CC(=O)Nc1ccc2c(c1)CCC(CN1CCN(c3ccc(C(=O)O)cc3-c3ccccc3)CC1)=C2c1ccc(Cl)cc1 | > 20000 nM |  |
| C=CC(=O)Nc1ccc2c(c1)CCC(CN1CCN(c3ccc(C(=O)O)cc3)CC1)=C2c1ccccc1 | 781 nM |  |
| C=CC(=O)Nc1ccc2c(c1)CCC(CN1CCN(c3ccccc3C(=O)O)CC1)=C2c1ccc(Cl)cc1 | > 20000 nM |  |
| C=CC(=O)Nc1ccc2c(c1)CCC(CN1CCN(c3ccc(C(=O)NS(=O)(=O)c4ccccc4)cc3)CC1)=C2c1ccc(Cl)cc1 | > 20000 nM |  |
| Nc1ccc2c(c1)CCC(CN1CCN(c3ccc(C(=O)NS(=O)(=O)c4ccc(NCC5CCOCC5)c([N+](=O)[O-])c4)c(Oc4cnc5[nH]ccc5c4)c3)CC1)=C2c1ccc(Cl)cc1 | 1170 nM | IC50 [2]: 4420 nM; IC50 [3]: 8900 nM; Ki [5]: 4760 nM |
| C=CC(=O)Nc1ccc2c(c1)CCC(CN1CCN(c3ccc(C(=O)O)cc3)CC1)=C2c1ccc(C#N)cc1 | > 20000 nM |  |
| C=CC(=O)N(C)c1ccc2c(c1)CCC(CN1CCN(c3ccc(C(=O)O)cc3)CC1)=C2c1ccc(Cl)cc1 | 373 nM |  |
| C=CC(=O)Nc1ccc2c(c1)CCC(CN1CCN(c3ccc(C(=O)O)cc3)CC1)=C2c1cccc(Cl)c1 | > 20000 nM |  |
| C=CC(=O)Nc1ccc2c(c1)CCC(CN1CCN(c3ccc(C(=O)O)cc3)CC1)=C2c1ccc(NC(C)=O)cc1 | > 20000 nM |  |
| C=CC(=O)Nc1ccc2c(c1)CCC(CN1CCN(c3ccc(C(=O)O)cc3)CC1)=C2c1cccc(OC)c1 | 723 nM |  |
| C=CC(=O)Nc1ccc2c(c1)CCC(CN1CCN(c3ccc(C(=O)O)cc3)CC1)=C2c1ccc(Cl)cc1Cl | 256 nM |  |
| C=CC(=O)Nc1ccc2c(c1)CCC(CN1CCN(c3ccc(C(=O)O)c(Oc4cnc5c(ccn5C)c4)c3)CC1)=C2c1ccc(Cl)cc1 | 145 nM |  |
| C=CC(=O)Nc1ccc2c(c1)CCC(CN1CCN(c3cccc(C(=O)O)c3)CC1)=C2c1ccc(Cl)cc1 | > 20000 nM |  |
| C=CC(=O)Nc1ccc2c(c1)CCC(CN1CCN(c3ccc(C(=O)O)cc3)CC1)=C2c1ccc(Cl)cc1F | 361 nM |  |
| O=C(CCl)Nc1ccc2c(c1)CCC(CN1CCN(c3ccc(C(=O)O)cc3)CC1)=C2c1ccc(Cl)cc1 | 997 nM |  |

| SMILES | Ki [4] | other results |
| --- | --- | --- |
| C=CC(=O)Nc1ccc2c(c1)CCC(CN1CCN(c3ccc(C(=O)O)cc3)CC1)=C2c1ccc(OC)cc1 | > 20000 nM |  |
| C=CC(=O)Nc1ccc2c(c1)CCC(CN1CCN(c3ccc(C(=O)O)c(Oc4cnc5[nH]ccc5c4)c3)CC1)=C2c1ccc(Cl)cc1CC | 105 nM | half-life [6]: 256 min; Ki [7]: 1950 nM; Ki [8]: 1380 nM; IC50 [2]: 12600 nM; IC50 [3]: 6920 nM; Ki [5]: 1260 nM |
| C=CC(=O)Nc1ccc2c(c1)CCC(CN1CCN(c3ccc(C(=O)NS(=O)(=O)c4ccc(NCC5CCOCC5)c([N+](=O)[O-])c4)c(Oc4cnc5[nH]ccc5c4)c3)CC1)=C2c1ccc(Cl)cc1 | > 20000 nM | IC50 [2]: 1790 nM; IC50 [3]: 7500 nM; Ki [5]: 4160 nM |
| C=CC(=O)Nc1ccc2c(c1)CCC(CN1CCN(c3ccc(C(=O)O)cc3)CC1)=C2c1ccccc1OC | > 20000 nM |  |
| C=CC(=O)Nc1ccc2c(c1)CCC(CN1CCN(c3ccc(C(=O)O)cc3)CC1)=C2c1cccc2cc[nH]c12 | > 20000 nM |  |
| C=CC(=O)Nc1ccc2c(c1)CCC(CN1CCN(c3ccc(C(=O)O)cc3)CC1)=C2c1cccc(O)c1 | > 20000 nM |  |
| C=CC(=O)N(c1ccc2c(c1)CCC(CN1CCN(c3ccc(C(=O)O)cc3)CC1)=C2c1ccc(Cl)cc1CC)C(C)C | 140 nM |  |
| CCc1cc(Cl)ccc1C1=C(CN2CCN(c3ccc(C(=O)NS(=O)(=O)c4ccc(NCC5CCOCC5)c([N+](=O)[O-])c4)c(Oc4cnc5[nH]ccc5c4)c3)CC2)CCc2cc(N)ccc21 | 1130 nM | IC50 [2]: 3690 nM; IC50 [3]: 8050 nM; Ki [5]: 3300 nM |
| C=CC(=O)N(C)Cc1ccc2c(c1)CCC(CN1CCN(c3ccc(C(=O)O)cc3)CC1)=C2c1ccc(Cl)cc1 | 326 nM |  |
| C=CC(=O)Nc1ccc2c(c1)CCC(CN1CCN(c3ccc(C(=O)O)cc3)CC1)=C2c1ccc(Cl)cc1C | 251 nM |  |
| C=CC(=O)Nc1ccc2c(c1)CCC(CN1CCN(c3ccc(C(=O)O)cc3)CC1)=C2c1cnn(C)c1 | > 20000 nM |  |
| C=CC(=O)Nc1ccc2c(c1)CCC(CN1CCNCC1)=C2c1ccc(Cl)cc1 | > 20000 nM |  |
| C=CC(=O)N(CC)c1ccc2c(c1)CCC(CN1CCN(c3ccc(C(=O)O)cc3)CC1)=C2c1ccc(Cl)cc1CC | 110 nM | IC50 [2]: 33500 nM; IC50 [3]: 22900 nM |
| C=CC(=O)Nc1ccc2c(c1)CCC(CN1CCN(c3ccc(C(=O)O)c(N(C)CCCO)c3)CC1)=C2c1ccc(Cl)cc1 | > 20000 nM |  |
| C=CC(=O)Nc1ccc2c(c1)CCC(CN1CCN(c3ccc(C(=O)NS(=O)(=O)c4ccc(NCC5CCOCC5)c([N+](=O)[O-])c4)c(Oc4cnc5[nH]ccc5c4)c3)CC1)=C2c1ccc(Cl)cc1CC | 949 nM | IC50 [2]: 2350 nM; IC50 [3]: 7280 nM; Ki [5]: 4510 nM |
| C=CC(=O)Nc1ccc2c(c1)CCC(CN1CCN(c3ccc(C(=O)O)cc3)CC1)=C2C1CC1 | > 20000 nM |  |
| C=CC(=O)Nc1ccc2c(c1)CCC(CN1CCN(c3ccc(C(=O)O)c(N(C)CCCN(C)C)c3)CC1)=C2c1ccc(Cl)cc1 | 774 nM |  |
| C=CC(=O)Nc1ccc2c(c1)CCC(CN1CCN(Cc3ccc(C(=O)O)cc3)CC1)=C2c1ccc(Cl)cc1 | > 20000 nM |  |
| C=CC(=O)Nc1ccc2c(c1)CCC(CN1CCN(c3ccc(C(=O)O)cc3)CC1)=C2c1ccncc1 | 5340 nM |  |
| C=CC(=O)Nc1ccc2c(c1)CCC(CN1CCN(c3ccc(C(=O)O)c(-c4ccncc4)c3)CC1)=C2c1ccc(Cl)cc1 | 370 nM |  |
| C=CC(=O)Nc1ccc2c(c1)CCC(CN1CCN(c3ccc(C(=O)O)cc3)CC1)=C2c1ccc(Cl)cc1OC | 959 nM |  |

| SMILES | Ki [4] | other results |
| --- | --- | --- |
| C=CC(=O)Nc1ccc2c(c1)CCC(CN1CCN(c3ccc(C(=O)O)cc3)CC1)=C2c1ccccc1Cl | 409 nM |  |
| C=CC(=O)Nc1ccc2c(c1)CCC(CN1CCN(c3ccc(C(=O)O)cc3)CC1)=C2c1ccn[nH]1 | > 20000 nM |  |
| C=CC(=O)N(C)c1ccc2c(c1)CCC(CN1CCN(c3ccc(C(=O)O)cc3)CC1)=C2c1ccc(Cl)cc1CC | 218 nM |  |
| C=CC(=O)Nc1ccc2c(c1)CCC(CN1CCN(c3ccc(C(=O)O)cc3-c3ccncc3)CC1)=C2c1ccc(Cl)cc1 | > 20000 nM |  |
| C=CC(=O)Nc1ccc2c(c1)CCC(CN1CCN(c3ccc(C(=O)O)cc3)CC1)=C2c1ccc(O)cc1 | > 20000 nM |  |
| C=CC(=O)Nc1ccc2c(c1)CCC(CN1CCN(c3ccc(C(=O)O)c(-c4ccccc4)c3)CC1)=C2c1ccc(Cl)cc1 | 178 nM |  |
| C=CC(=O)Nc1ccc2c(c1)CCC(CN1CCN(c3ccc(C(=O)O)c(Oc4cnc5[nH]ccc5c4)c3)CC1)=C2c1ccc(Cl)cc1 | 127 nM | IC50 [2]: 19900 nM; IC50 [3]: 10600 nM; Ki [5]: 2360 nM |
| C=CC(=O)N(CC)Cc1ccc2c(c1)CCC(CN1CCN(c3ccc(C(=O)O)cc3)CC1)=C2c1ccc(Cl)cc1 | 335 nM |  |
| C=CC(=O)Nc1ccc2c(c1)CCC(CN1CCN(c3ccc(C(=O)O)cc3)CC1)=C2Br | > 20000 nM |  |
| C=CC(=O)N(CCC)c1ccc2c(c1)CCC(CN1CCN(c3ccc(C(=O)O)cc3)CC1)=C2c1ccc(Cl)cc1CC | 124 nM | Ki [5]: 4400 nM |
| C=CC(=O)Nc1ccc2c(c1)CCC(CN1CCN(c3ccc(C(=O)O)cc3)CC1)=C2c1ccc(Cl)cc1 | 525 nM |  |
| C=CC(=O)NCc1ccc2c(c1)CCC(CN1CCN(c3ccc(C(=O)O)cc3)CC1)=C2c1ccc(Cl)cc1 | 913 nM |  |
| C=CC(=O)Nc1ccc2c(c1)CCC(CN1CCN(c3ccc(C(=O)O)cc3)CC1)=C2c1cn[nH]c1 | > 20000 nM |  |
| C=CC(=O)Nc1ccc2c(c1)CCC(CN1CCN(c3ccc(C(=O)O)cc3)CC1)=C2c1ccc(C(=O)O)cc1 | > 20000 nM |  |
| C=CC(=O)Nc1ccc2c(c1)CCC(CN1CCN(c3ccc(C(=O)OCC)cc3)CC1)=C2c1ccc(Cl)cc1 | > 20000 nM |  |
| C=CC(=O)Nc1ccc2c(c1)CCC(CN1CCN(c3ccc(C(=O)O)cc3)CC1)=C2c1ccc(Cl)cc1CC | 158 nM |  |
| CN(C)C/C=C/C(=O)Nc1cc2c(Nc3ccc(F)c(Cl)c3)ncnc2cc1O[C@H]1CCOC1 [AFATINIB] |  | half-life [6]: 13.2 min |
| C=CC(=O)Nc1cc(Nc2nccc(-c3cn(C)c4ccccc34)n2)c(OC)cc1N(C)CCN(C)C [OSIMERTINIB] |  | half-life [6]: 30.6 min |
| CC1(C)CCC(CN2CCN(c3ccc(C(=O)NS(=O)(=O)c4ccc(NCC5CCOCC5)c([N+](=O)[O-])c4)c(Oc4cnc5[nH]ccc5c4)c3)CC2)=C(c2ccc(Cl)cc2)C1 [VENETOCLAX] |  | Ki [9]: > 444 nM; IC50 [2]: 440 nM; IC50 [3]: 6260 nM; Ki [5]: 3750 nM |
